ChEMBL document CHEMBL1949629, “Discovery of a second generation agonist of the orphan G-protein coupled receptor GPR119 with an improved profile” (Bioorg Med Chem Lett, 2012)
In brackets after ≈: the same amount, converted by molar mass. Activity calls are given as the source filed them. No cut-off for these calls is given here.

Key:
[1] = Solubility in 20% HPbetaCD after 24 hrs; assay type: physicochemical
[2] = Half life cynomolgus monkey at 25 to 400 mg administered once daily; assay type: ADME, organism-based, Macaca fascicularis; conditions: in vivo
[3] = Cmax in C57Bl mouse at 10 mg/kg, po; assay type: ADME, organism-based; parameters: dose 10 mg/kg, route oral; conditions: in vivo
Cynomolgus monkey [4] = assay: Drug concentration in cynomolgus monkey measured at initiation of the oral glucose tolerance test at 3 mg/kg; assay type: ADME, organism-based, Macaca fascicularis; parameters: dose 3 mg/kg, route oral; conditions: in vivo
Rattus norvegicus [5] = assay: Drug concentration in ZDF rat measured at initiation of the oral glucose tolerance test at 3 mg/kg; assay type: ADME, organism-based; parameters: dose 3 mg/kg, route oral; conditions: in vivo
Rattus norvegicus [6] = assay: Drug metabolism in po dosed rat assessed as isopropyl 2-hydroxy-4-(5-methoxy-6-(2-methyl-6-(methylsulfonyl)pyridin-3-ylamino)pyrimidin-4-yloxy)piperidine-1-carboxylate formation; assay type: ADME, organism-based; conditions: in vivo
Rattus norvegicus [7] = assay: Antidiabetic activity in fasted Sprague-Dawley rat assessed as reduction in AUC of glucose at 30 mg/kg, po administered 30 mins prior glucose challenge by oral glucose tolerance test; assay type: functional, organism-based; parameters: dose 30 mg/kg
[8] = Clearance in iv dosed Beagle dog; assay type: ADME, organism-based, Canis lupus familiaris; conditions: in vivo
Rattus norvegicus [9] = assay: Antidiabetic activity in Sprague-Dawley rat assessed as blood glucose AUC at 3 mg/kg administered 60 mins prior glucose challenge by oral glucose tolerance test relative to vehicle treated control; assay type: functional
Rattus norvegicus [10] = assay: Drug metabolism in po dosed rat assessed as 5-methoxy-N-(2-methyl-6-(methylsulfonyl)pyridin-3-yl)-6-(piperidin-4-yloxy)pyrimidin-4-amine formation; assay type: ADME, organism-based; conditions: in vivo
[11] = Half life in C57Bl mouse at 10 mg/kg, po; conditions: in vivo
[12] = Cmax in Sprague-Dawley rat at 10 mg/kg, po; assay type: ADME, organism-based; parameters: dose 10 mg/kg, route oral; conditions: in vivo
Rattus norvegicus [13] = assay: Antidiabetic activity in ZDF rat assessed as blood glucose AUC at 3 mg/kg administered 60 mins prior glucose challenge by oral glucose tolerance test relative to vehicle treated control; assay type: functional
Cavia porcellus [14] = assay: Toxicity in guinea pig assessed as change in ECG at 5 mg/kg, iv; assay type: organism-based; parameters: dose 5 mg/kg, route intravenous; conditions: in vivo
[15] = Half life in human liver microsomes; assay type: ADME, Microsome
[16] = Mean residence time in Sprague-Dawley rat at 10 mg/kg, po; assay type: ADME, organism-based; parameters: dose 10 mg/kg, route oral; conditions: in vivo
[17] = Mean residence time in Beagle dog at 7.85 mg/kg, po; assay type: ADME, organism-based, Canis lupus familiaris; parameters: dose 7.85 mg/kg, route oral; conditions: in vivo
[18] = AUC (0 to infinity) in Beagle dog at 7.85 mg/kg, po; assay type: ADME, organism-based, Canis lupus familiaris; parameters: time infinity, dose 7.85 mg/kg, route oral; conditions: plasma
[19] = Cmax in cynomolgus monkey at 10 mg/kg, po; assay type: ADME, organism-based, Macaca fascicularis; parameters: dose 10 mg/kg, route oral; conditions: in vivo
Rattus norvegicus [20] = organism: Rattus norvegicus; assay: Clearance in rat relative to hepatic blood flow; assay type: ADME, organism-based, Liver; conditions: in vivo
[21] = Elimination half life in dog; conditions: in vivo
[22] = Solubility in water at pH 2; assay type: physicochemical
[23] = Mean residence time in C57Bl mouse at 10 mg/kg, po; assay type: ADME, organism-based; parameters: dose 10 mg/kg, route oral; conditions: in vivo
[24] = Solubility in water at pH 7; assay type: physicochemical; conditions: buffer
Mus musculus [25] = assay: Antidiabetic activity in fasted C57bl/6j mouse assessed as reduction in AUC of glucose at 10 mg/kg, po administered 30 mins prior glucose challenge by oral glucose tolerance test; assay type: functional, organism-based; parameters: dose 10 mg/kg
Rattus norvegicus [26] = assay: Drug metabolism in po dosed rat assessed as 5-methoxy-6-(2-methyl-6-(methylsulfonyl)pyridin-3-ylamino)pyrimidin-4-ol formation; assay type: ADME, organism-based; conditions: in vivo
[27] = Half life in Sprague-Dawley rat at 10 mg/kg, po; conditions: in vivo
Mus musculus [28] = assay: Antidiabetic activity in fasted C57bl/6j mouse assessed as reduction in AUC of glucose at 1 mg/kg, po administered 30 mins prior glucose challenge by oral glucose tolerance test; assay type: functional, organism-based; parameters: dose 1 mg/kg
in vivo = conditions: beagle, dog, po, 7.85 mg/kg
Description: Half life in Beagle dog at 7.85 mg/kg, po

Cavia porcellus [29] = assay: Toxicity in guinea pig assessed as change in heart rate at 5 mg/kg, iv; assay type: organism-based; parameters: dose 5 mg/kg, route intravenous; conditions: in vivo
Cavia porcellus [30] = assay: Toxicity in guinea pig assessed as mean arterial blood pressure change at 5 mg/kg, iv; assay type: organism-based; parameters: dose 5 mg/kg, route intravenous; conditions: in vivo
[31] = Tmax in Beagle dog at 7.85 mg/kg, po; assay type: ADME, organism-based, Canis lupus familiaris; parameters: dose 7.85 mg/kg, route oral; conditions: in vivo
[32] = Tmax in cynomolgus monkey at 10 mg/kg, po; assay type: ADME, organism-based, Macaca fascicularis; parameters: dose 10 mg/kg, route oral; conditions: in vivo
[33] = Permeability from basolateral to apical side of human Caco2 cells; assay type: ADME, cell-based; conditions: Caco-2, read-out: permeability
Mus musculus [34] = assay: Antidiabetic activity in ob/ob mouse assessed as blood glucose AUC at 3 mg/kg administered 60 mins prior glucose challenge by oral glucose tolerance test relative to vehicle treated control; assay type: functional
[35] = Mean residence time in cynomolgus monkey at 10 mg/kg, po; assay type: ADME, organism-based, Macaca fascicularis; parameters: dose 10 mg/kg, route oral; conditions: in vivo
[36] = Clearance in iv dosed Sprague-Dawley rat; assay type: ADME, organism-based; conditions: in vivo
Cynomolgus monkey [37] = assay: Antidiabetic activity in cynomolgus monkey assessed as blood glucose AUC at 3 mg/kg administered 60 mins prior glucose challenge by oral glucose tolerance test relative to vehicle treated control; assay type: functional, Macaca fascicularis
Canis familiaris [38] = assay: Toxicity in dog assessed as developmental abnormality dosed for 7 days; assay type: organism-based, Canis lupus familiaris; conditions: in vivo, 168 h
[39] = Elimination half life in rat; conditions: in vivo
[40] = AUC (0 to infinity) in cynomolgus monkey at 10 mg/kg, po; assay type: ADME, organism-based, Macaca fascicularis; parameters: time infinity, dose 10 mg/kg, route oral; conditions: plasma
Canis familiaris [41] = organism: Canis familiaris; assay: Clearance in dog relative to hepatic blood flow; assay type: ADME, organism-based, Canis lupus familiaris, Liver; conditions: in vivo
[42] = AUC (0 to infinity) in C57Bl mouse at 10 mg/kg, po; assay type: ADME, organism-based; parameters: time infinity, dose 10 mg/kg, route oral; conditions: plasma
[43] = Permeability from apical to basolateral side of human Caco2 cells; assay type: ADME, cell-based; conditions: Caco-2, read-out: permeability
[44] = Half life in rat liver microsomes; assay type: ADME, Microsome
Rattus norvegicus [45] = assay: Antidiabetic activity in fasted Sprague-Dawley rat assessed as reduction in AUC of glucose at 3 mg/kg, po administered 30 mins prior glucose challenge by oral glucose tolerance test; assay type: functional, organism-based; parameters: dose 3 mg/kg
[46] = Clearance in iv dosed Cynomolgus monkey; assay type: ADME, organism-based, Macaca fascicularis; conditions: in vivo
[47] = Cmax in Beagle dog at 7.85 mg/kg, po; assay type: ADME, organism-based, Canis lupus familiaris; parameters: dose 7.85 mg/kg, route oral; conditions: in vivo
Cytochrome P450 2C9 = Cytochrome P450 2C9 (Homo sapiens, UniProt P11712); assay: Inhibition of CYP2C9; assay type: ADME
Cytochrome P450 2C9, sequence (P11712 whole entry): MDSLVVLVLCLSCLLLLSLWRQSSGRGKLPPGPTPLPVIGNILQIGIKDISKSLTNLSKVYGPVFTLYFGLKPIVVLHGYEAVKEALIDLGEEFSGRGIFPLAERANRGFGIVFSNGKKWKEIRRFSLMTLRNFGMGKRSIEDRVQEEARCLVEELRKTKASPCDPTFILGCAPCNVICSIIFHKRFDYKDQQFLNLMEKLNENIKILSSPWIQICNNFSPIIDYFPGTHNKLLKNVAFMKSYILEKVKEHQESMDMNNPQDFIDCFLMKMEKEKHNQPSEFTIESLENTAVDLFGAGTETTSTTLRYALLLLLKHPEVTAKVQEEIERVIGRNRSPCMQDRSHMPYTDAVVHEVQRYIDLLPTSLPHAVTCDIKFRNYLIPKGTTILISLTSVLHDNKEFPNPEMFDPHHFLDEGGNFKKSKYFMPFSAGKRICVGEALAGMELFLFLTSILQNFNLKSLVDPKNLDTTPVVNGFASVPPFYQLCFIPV

[48] = Tmax in Sprague-Dawley rat at 10 mg/kg, po; assay type: ADME, organism-based; parameters: dose 10 mg/kg, route oral; conditions: in vivo
[49] = Half life in cynomolgus monkey at 10 mg/kg, po; conditions: in vivo
Rattus norvegicus [50] = assay: Drug concentration in Sprague-Dawley rat measured at initiation of the oral glucose tolerance test at 3 mg/kg; assay type: ADME, organism-based; parameters: dose 3 mg/kg, route oral; conditions: in vivo
[51] = AUC (0 to infinity) in Sprague-Dawley rat at 10 mg/kg, po; assay type: ADME, organism-based; parameters: time infinity, dose 10 mg/kg, route oral; conditions: plasma
Rattus norvegicus [52] = assay: Toxicity in rat assessed as developmental abnormality dosed for 14 days; assay type: organism-based; conditions: in vivo, 336 h
[53] = Tmax in C57Bl mouse at 10 mg/kg, po; assay type: ADME, organism-based; parameters: dose 10 mg/kg, route oral; conditions: in vivo
[54] = target: Voltage-gated inwardly rectifying potassium channel KCNH2 (Homo sapiens, UniProt Q12809); assay: Inhibition of human ERG
Voltage-gated inwardly rectifying potassium channel KCNH2, sequence (Q12809 whole entry): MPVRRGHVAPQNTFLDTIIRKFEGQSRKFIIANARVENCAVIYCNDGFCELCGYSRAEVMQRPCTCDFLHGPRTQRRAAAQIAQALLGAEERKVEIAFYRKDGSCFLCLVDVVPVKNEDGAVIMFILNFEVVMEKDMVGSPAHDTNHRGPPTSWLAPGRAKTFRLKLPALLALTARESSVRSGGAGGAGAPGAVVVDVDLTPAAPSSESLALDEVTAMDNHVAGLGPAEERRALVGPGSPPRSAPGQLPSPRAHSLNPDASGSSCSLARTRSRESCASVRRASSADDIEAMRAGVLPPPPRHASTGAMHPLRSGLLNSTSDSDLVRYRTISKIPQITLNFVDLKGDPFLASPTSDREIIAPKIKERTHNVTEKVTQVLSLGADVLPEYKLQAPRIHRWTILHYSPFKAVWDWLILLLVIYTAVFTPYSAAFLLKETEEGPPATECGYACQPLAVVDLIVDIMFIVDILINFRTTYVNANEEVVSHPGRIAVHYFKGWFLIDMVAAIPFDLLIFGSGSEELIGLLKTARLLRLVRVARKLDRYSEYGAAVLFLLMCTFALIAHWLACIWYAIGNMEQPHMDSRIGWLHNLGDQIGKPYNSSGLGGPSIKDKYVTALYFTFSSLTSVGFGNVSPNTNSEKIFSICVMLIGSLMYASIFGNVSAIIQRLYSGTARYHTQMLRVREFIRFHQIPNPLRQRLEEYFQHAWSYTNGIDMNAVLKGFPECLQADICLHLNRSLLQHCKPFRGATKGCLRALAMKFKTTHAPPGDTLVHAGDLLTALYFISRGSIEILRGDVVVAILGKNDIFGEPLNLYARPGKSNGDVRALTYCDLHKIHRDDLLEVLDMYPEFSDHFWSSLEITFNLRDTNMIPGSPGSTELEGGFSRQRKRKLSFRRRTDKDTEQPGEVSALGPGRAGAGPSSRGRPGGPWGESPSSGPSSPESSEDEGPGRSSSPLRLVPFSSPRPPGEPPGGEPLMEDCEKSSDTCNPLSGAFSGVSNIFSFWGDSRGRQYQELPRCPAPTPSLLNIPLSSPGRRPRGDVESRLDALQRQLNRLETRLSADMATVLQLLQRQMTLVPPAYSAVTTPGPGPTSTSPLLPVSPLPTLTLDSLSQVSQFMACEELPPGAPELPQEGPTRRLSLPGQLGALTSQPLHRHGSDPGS

SMILES: Cc1c(Nc2ccc(S(C)(=O)=O)nc2)ncnc1OC1CCN(C(=O)OC(C)C)CC1
- solubility at 24 h [1]: 21.3 mg/mL (≈ 47.4 mM)

SMILES: Cc1cc(S(C)(=O)=O)ncc1Oc1ncnc(OC2CCN(C(=O)OC(C)C)CC2)c1C
- solubility at 24 h [1]: 13.1 mg/mL (≈ 28.2 mM)

SMILES: Cc1cc(S(C)(=O)=O)ncc1Nc1ncnc(OC2CCN(C(=O)OC(C)C)CC2)c1C
- solubility at 24 h [1]: 20.4 mg/mL (≈ 44 mM)

SMILES: CCc1c(Nc2ccc(S(C)(=O)=O)nc2C)ncnc1OC1CCN(C(=O)OC(C)C)CC1
- solubility at 24 h [1]: 24.5 mg/mL (≈ 51.3 mM)

SMILES: Cc1nc(S(C)(=O)=O)ccc1Nc1ncnc(OC2CCN(C(=O)OC(C)C)CC2)c1C1CC1
- solubility at 24 h [1]: 17.7 mg/mL (≈ 36.2 mM)

SMILES: Cc1nc(S(C)(=O)=O)ccc1Nc1ncnc(OC2CCN(C(=O)OC(C)C)CC2)c1C(F)F
- solubility at 24 h [1]: 17.3 mg/mL (≈ 34.6 mM)

SMILES: CCOc1c(Nc2ccc(S(C)(=O)=O)nc2C)ncnc1OC1CCN(C(=O)OC(C)C)CC1
- solubility at 24 h [1]: 3.3 mg/mL (≈ 6.69 mM)

SMILES: Cc1nc(S(C)(=O)=O)ccc1Nc1ncnc(OC2CCN(C(=O)OC(C)C)CC2)c1OC(F)F
- solubility at 24 h [1]: 7.8 mg/mL (≈ 15.1 mM)

SMILES: Cc1nc(S(C)(=O)=O)ccc1Nc1ncnc(OC2CCN(C(=O)OC(C)C)CC2)c1C#N
- solubility at 24 h [1]: 17 mg/mL (≈ 35.8 mM)

SMILES: CC(CO)OC(=O)N1CCC(Oc2ncnc3c2cnn3-c2ccc(S(C)(=O)=O)cc2F)CC1 (stereo not given)
- half-life [2]: 41 h

SMILES: COc1c(Nc2ccc(S(C)(=O)=O)nc2C)ncnc1OC1CCN(C(=O)OC(C)C)CC1 [ADP-597]
- Cmax [3]: 25800 ng/mL
- Drug uptake (Cynomolgus monkey [4]): 112 ng/mL
- Drug uptake (Rattus norvegicus [5]): 1592 ng/mL
- Drug metabolism (Rattus norvegicus [6]): Active
- Activity (Rattus norvegicus [7]): Active
- clearance [8]: 0.667 mL/min/kg
- Activity (Rattus norvegicus [9]): 85.1%
- Drug metabolism (Rattus norvegicus [10]): Active
- half-life [11]: 5.9 h
- Cmax [12]: 1390 ng/mL
- Activity (Rattus norvegicus [13]): 72.8%
- Activity (Cavia porcellus [14]): Non-toxic
- half-life [15]: > 1 h
- MRT [16]: 6.8 h
- MRT [17]: 10.9 h
- solubility at 24 h [1]: 33 mg/mL (≈ 68.8 mM)
- AUC(0-inf) [18]: 43700 ng·h/mL
- Cmax [19]: 4800 ng/mL
- CL (Rattus norvegicus [20]): 16%
- half-life [21]: 7 h
- solubility [22]: 0.31 mg/mL (≈ 0.646 mM)
- MRT [23]: 7.9 h
- solubility [24]: 0.11 mg/mL (≈ 0.229 mM)
- Activity (Mus musculus [25]): Active
- Drug metabolism (Rattus norvegicus [26]): Active
- half-life [27]: 4.3 h
- Activity (Mus musculus [28]): Active
- half-life (in vivo): 10.9 h
- Activity (Cavia porcellus [29]): Non-toxic
- Activity (Cavia porcellus [30]): Non-toxic
- Tmax [31]: 8 h
- Tmax [32]: 6 h
- Papp B→A [33]: 15 ×10⁻⁶ cm/s
- Activity (Mus musculus [34]): 78.4%
- MRT [35]: 8.4 h
- clearance [36]: 9.67 mL/min/kg
- Activity (Cynomolgus monkey [37]): 82.8%
- Activity (Canis familiaris [38]): Non-toxic
- half-life [39]: 3 h
- AUC(0-inf) [40]: 64200 ng·h/mL
- CL (Canis familiaris [41]): 16%
- AUC(0-inf) [42]: 320000 ng·h/mL
- Papp A→B [43]: 26 ×10⁻⁶ cm/s
- half-life [44]: > 1 h
- Activity (Rattus norvegicus [45]): Active
- clearance [46]: 1.83 mL/min/kg
- Cmax [47]: 1980 ng/mL
- IC50 (Cytochrome P450 2C9): 8 µM
- Tmax [48]: 1 h
- half-life [49]: 4.4 h
- Drug uptake (Rattus norvegicus [50]): 482 ng/mL
- AUC(0-inf) [51]: 12500 ng·h/mL
- Activity (Rattus norvegicus [52]): Non-toxic
- Tmax [53]: 2 h
- IC50 [54]: > 10 µM
